Test results: patent US7259171B2, “Di and trifluoro-triazolo-pyridines anti-inflammatory compounds” (Pfizer Inc., priority 2002, dated 2007)

melting point: 175.7 to 176.2 °C
SMILES: CC(C)c1nnc2ccc(-c3ocnc3-c3c(F)cccc3F)cn12 [Example 1, 6-[4-(2,6-Difluoro-phenyl)-oxazol-5-yl]-3-isopropyl-[1,2,4]triazolo[4,3-a]pyridine]
